Experimental data from ChEMBL document CHEMBL1201862, “PubChem BioAssay data set” (2004).
Active and inactive are the calls of the source.

Columns and labels:
Estrogen receptor beta = Estrogen receptor beta (Homo sapiens, UniProt Q92731);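 note: recombinant ER-beta bound to coactivator SRC1 peptide in presence of estradiol agonist; inhibitors block coactivator peptide binding and lower the FRET signal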
[1] = A549 cell cytotoxicity, dose response, cytotoxicity control, plate reader, cherry-pick, antagonist series (AID 743412); type: functional, cell-based
[2] = inhibitors of SNCA 5'UTR-driven reporter translation, confirmation, H4 neuroglioma cells, luminescence (AID 1988); type: functional, cell-based
[3] = MC4R antagonists, dose response, counter-screen for LGR2 antagonist project, cell-based, plate reader, cherry pick (AID 743444); type: functional;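 note: transfected HEK 293 cells stimulated with alpha-MSH peptide; potency of inhibitors of the alpha-MSH evoked signal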
[4] = LGR2 antagonists, dose response, cell-based, HEK293, CRE-luciferase reporter, cherry pick, set 2 (AID 743343); type: functional;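 note: transfected cells were stimulated with diluted bursicon conditioned medium after compound addition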
[5] = HepG2 cell cytotoxicity, dose response, cytotoxicity control, plate reader, cherry-pick, antagonist series (AID 743416); type: functional, cell-based
[6] = Luminescence Cell-Based Dose Response HTS to Identify Inhibitors of 5'UTR Stem-Loop Driven Prion Protein mRNA Translation in H4 Neuroglioblastoma Cells. [Related pubchem assays: 1827 (Project Summary), 1813 (Primary HTS)]; type: functional
[7] = microbe, parasite or virus in culture; type: functional; settings: Mycobacterium tuberculosis
[8] = target: T1, High affinity choline transporter 1 (Homo sapiens, UniProt Q9GZV3); assay: CHT inhibitors, dose response, cell-based, 5-point CRC, membrane potential dye (AID 504840); type: functional
T1 sequence (Q9GZV3 whole entry): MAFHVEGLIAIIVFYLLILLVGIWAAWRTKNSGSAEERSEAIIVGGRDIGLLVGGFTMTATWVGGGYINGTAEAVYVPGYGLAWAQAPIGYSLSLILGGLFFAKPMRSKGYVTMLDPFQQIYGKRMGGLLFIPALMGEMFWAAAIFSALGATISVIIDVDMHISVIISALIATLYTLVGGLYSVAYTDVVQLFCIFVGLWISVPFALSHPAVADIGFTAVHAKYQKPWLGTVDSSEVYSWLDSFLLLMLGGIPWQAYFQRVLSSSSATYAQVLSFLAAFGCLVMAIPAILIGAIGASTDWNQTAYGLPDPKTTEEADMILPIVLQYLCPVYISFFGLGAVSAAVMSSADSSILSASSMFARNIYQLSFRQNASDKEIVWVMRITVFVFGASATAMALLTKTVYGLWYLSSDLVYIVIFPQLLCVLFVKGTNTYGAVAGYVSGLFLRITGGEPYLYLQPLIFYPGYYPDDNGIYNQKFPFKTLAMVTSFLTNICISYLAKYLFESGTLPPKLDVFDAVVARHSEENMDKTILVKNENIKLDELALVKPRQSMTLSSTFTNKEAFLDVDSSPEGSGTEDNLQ

[9] = target: Glyceraldehyde-3-phosphate dehydrogenase (Homo sapiens, UniProt P04406)
[10] = Luminescence Cell-Based Dose Retest to Confirm Inhibitors of Cancer Stem Cells. [Related pubchem assays (depositor defined):AID2717, AID2721]; type: functional; settings: Homo sapiens
[11] = HeLa cell cytotoxicity, dose response, cytotoxicity control for MgcRacGAP inhibitor project (AID 624300); type: functional
[12] = target: T2, Rac GTPase-activating protein 1 (Homo sapiens, UniProt Q9H0H5); assay: MgcRacGAP GTPase-activating activity inhibitors, confirmation, biochemical, ADP Hunter fluorescence, primary and confirmatory (AID 624330); type: functional
T2 sequence (Q9H0H5 whole entry): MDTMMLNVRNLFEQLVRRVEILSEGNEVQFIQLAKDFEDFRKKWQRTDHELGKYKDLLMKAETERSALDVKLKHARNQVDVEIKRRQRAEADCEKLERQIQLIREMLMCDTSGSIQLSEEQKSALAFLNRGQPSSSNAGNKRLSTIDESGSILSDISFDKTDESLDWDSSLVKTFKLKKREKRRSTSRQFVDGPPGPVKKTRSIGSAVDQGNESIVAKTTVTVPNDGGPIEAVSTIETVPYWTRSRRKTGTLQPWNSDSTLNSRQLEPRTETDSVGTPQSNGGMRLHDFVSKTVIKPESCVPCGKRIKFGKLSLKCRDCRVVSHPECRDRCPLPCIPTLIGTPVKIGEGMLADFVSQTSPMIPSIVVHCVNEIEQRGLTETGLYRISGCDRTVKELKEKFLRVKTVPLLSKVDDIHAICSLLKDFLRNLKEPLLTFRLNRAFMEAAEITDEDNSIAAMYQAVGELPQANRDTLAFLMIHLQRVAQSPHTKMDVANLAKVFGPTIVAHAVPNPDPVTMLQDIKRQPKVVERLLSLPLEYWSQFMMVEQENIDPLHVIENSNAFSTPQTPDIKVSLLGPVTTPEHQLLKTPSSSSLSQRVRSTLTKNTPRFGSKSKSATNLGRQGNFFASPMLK

P388/ADR = assay: cells; type: functional; settings: Mus musculus
SN12K1 = assay: cells; type: functional; settings: Homo sapiens
[13] = inhibitors of clade B AD8 Env fusion, dose response, cell-based, cherry-pick (AID 652062); type: functional;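 note: luciferase signal from cell-cell fusion driven by HIV-1 clade B AD8 Env; potency is for inhibitors of fusion seen as a drop in luminescence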
Streptococcus = assay: Group A Streptococcus viability loss, dose response, counter-screen for streptokinase expression inhibitor project, luminescence, BacTiterGlo (AID 1915); type: functional, organism-based;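 note: potency for reduction of bacterial viability or growth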
[14] = system: Streptococcus sp. 'group A'; assay: growth inhibition of control SK(-) GAS strain, dose response, counter-screen for streptokinase expression inhibitor project, luminescence, kanamycin, BacTiterGlo, confirmation (AID 1900); type: functional, organism-based
[15] = growth suppression of PTEN-null colon cells, dose response, cell-based, HCT116 PTEN knockout (AID 1047); type: functional;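 note: HCT116 colon tumor cells with PTEN knocked out; cells exposed to compound for 60 hours before readout; potency for loss of cell viability measured by luminescence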
[16] = growth suppression of beta-catenin-knockout colon cells, dose response, cell-based, HCT116, human colon tumor (AID 1045); type: functional;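 note: HCT116 colon tumor cells with beta catenin knocked out; cells exposed to compound for 60 hours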
Streptokinase A = target: T3, Streptokinase A (Streptococcus pyogenes serotype M1, UniProt P10520); assay: S. pyogenes streptokinase expression inhibitors, potency, dose response, plasminogen activation absorbance, OD405 (AID 1914); type: functional, Streptococcus pyogenes M1 GAS;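 note: secreted streptokinase activity via plasminogen activation per viability signal from cell pellet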
T3 sequence (P10520 whole entry): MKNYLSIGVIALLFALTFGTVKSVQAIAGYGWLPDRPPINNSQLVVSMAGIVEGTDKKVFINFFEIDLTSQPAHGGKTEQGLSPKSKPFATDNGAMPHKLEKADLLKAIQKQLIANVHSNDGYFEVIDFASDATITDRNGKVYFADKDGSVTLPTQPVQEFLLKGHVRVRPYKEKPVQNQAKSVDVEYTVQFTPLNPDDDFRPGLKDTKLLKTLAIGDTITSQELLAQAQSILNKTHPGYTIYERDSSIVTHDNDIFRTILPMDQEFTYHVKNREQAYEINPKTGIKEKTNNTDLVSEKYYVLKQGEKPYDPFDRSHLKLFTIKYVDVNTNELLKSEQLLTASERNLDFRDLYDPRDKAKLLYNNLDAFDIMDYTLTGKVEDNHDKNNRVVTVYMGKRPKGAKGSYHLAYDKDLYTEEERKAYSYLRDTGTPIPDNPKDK

[17] = target: T4, Heat shock factor protein 1 (Mus musculus, UniProt P38532); assay: HSF1 potentiators in luciferase reporter cells, confirmation, cell-based, NIH3T3, luminescence, dose retest (AID 435004); type: functional;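 note: stress induced by proteasome inhibitor MG132 added 30 min after compound; luciferase reporter driven by HSF1 response element in NIH3T3 cells; actives raise luminescence as potentiators of the MG132 stress response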
T4 sequence (P38532 whole entry): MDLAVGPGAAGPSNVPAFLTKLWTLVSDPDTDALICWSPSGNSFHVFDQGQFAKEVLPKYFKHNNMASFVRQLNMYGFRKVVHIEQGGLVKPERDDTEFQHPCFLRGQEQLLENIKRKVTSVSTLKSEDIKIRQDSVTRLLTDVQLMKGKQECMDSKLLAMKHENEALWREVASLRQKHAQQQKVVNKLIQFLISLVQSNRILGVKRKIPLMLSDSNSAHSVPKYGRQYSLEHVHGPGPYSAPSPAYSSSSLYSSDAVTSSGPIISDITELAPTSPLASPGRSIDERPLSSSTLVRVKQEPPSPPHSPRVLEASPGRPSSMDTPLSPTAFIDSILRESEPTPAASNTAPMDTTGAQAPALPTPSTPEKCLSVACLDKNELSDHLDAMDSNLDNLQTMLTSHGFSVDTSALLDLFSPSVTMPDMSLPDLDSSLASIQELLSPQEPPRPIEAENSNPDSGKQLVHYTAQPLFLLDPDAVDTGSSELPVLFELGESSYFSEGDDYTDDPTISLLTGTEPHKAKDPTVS

Cytochrome P450 2C19 = Cytochrome P450 2C19 (Homo sapiens, UniProt P33261); assay: Cytochrome panel assay with activity outcomes. Panel member name: p450-cyp2c19 Compounds with AC50 equal or less than 10 uM are considered active; type: functional; settings: read-out: AC50
Cytochrome P450 1A2 = target: T5, Cytochrome P450 1A2 (Homo sapiens, UniProt P05177);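 note: PubChem cytochrome P450 panel assay, CYP1A2 panel member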
T5 sequence (P05177 whole entry): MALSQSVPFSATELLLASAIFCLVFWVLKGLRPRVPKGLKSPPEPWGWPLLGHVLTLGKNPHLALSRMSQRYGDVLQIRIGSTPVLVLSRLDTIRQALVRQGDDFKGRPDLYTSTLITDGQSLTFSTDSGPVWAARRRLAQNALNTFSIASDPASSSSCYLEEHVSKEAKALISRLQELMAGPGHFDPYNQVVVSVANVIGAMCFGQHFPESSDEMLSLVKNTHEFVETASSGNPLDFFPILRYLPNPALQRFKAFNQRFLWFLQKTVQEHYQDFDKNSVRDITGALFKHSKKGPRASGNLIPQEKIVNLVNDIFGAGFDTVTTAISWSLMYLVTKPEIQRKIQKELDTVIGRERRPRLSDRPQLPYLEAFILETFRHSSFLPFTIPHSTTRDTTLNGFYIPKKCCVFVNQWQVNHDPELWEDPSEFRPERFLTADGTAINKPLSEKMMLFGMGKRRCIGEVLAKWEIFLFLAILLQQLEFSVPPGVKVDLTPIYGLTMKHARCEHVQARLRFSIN

Chain of Estrogen receptor beta (Q92731 whole entry): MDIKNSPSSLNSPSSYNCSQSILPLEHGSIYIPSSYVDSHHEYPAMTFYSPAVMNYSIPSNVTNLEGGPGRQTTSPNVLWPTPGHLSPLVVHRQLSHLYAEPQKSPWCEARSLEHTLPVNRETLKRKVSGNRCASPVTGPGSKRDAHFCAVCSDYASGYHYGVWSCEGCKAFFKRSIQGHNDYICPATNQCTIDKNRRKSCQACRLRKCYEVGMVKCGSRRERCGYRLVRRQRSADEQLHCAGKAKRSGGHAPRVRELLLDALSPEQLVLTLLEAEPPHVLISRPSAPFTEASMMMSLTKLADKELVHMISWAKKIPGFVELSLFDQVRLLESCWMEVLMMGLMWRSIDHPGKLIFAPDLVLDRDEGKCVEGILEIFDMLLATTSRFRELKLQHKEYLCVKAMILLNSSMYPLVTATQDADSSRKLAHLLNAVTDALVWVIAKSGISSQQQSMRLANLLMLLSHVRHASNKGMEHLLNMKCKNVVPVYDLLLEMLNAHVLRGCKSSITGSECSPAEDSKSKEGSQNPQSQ
Chain of Glyceraldehyde-3-phosphate dehydrogenase (P04406 whole entry): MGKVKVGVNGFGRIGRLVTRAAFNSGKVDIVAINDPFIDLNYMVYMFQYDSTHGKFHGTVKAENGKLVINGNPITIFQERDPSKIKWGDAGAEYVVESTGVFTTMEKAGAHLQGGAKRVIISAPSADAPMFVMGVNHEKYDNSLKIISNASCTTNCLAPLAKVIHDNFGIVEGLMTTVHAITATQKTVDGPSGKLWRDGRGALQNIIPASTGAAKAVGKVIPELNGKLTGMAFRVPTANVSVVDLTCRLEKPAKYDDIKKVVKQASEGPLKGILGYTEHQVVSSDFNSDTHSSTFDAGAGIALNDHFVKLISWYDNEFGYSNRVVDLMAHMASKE
Chain of Cytochrome P450 2C19 (P33261 whole entry): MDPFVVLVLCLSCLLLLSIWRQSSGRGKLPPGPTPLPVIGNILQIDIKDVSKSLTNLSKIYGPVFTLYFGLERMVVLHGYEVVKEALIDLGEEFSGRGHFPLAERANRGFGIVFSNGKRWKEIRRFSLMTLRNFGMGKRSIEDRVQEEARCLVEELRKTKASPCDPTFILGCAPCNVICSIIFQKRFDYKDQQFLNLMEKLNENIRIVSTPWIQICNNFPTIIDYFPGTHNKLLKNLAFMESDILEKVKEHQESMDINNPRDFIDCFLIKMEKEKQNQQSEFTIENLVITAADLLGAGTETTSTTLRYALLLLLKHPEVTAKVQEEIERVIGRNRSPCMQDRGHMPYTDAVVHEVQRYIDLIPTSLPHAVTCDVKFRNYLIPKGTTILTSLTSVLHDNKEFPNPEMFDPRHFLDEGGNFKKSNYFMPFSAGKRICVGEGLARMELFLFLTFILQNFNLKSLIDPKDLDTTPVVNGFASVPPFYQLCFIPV

In the case of `COCCCNc1nc2c([nH]1)c(=O)[nH]c(=O)n2C`, the IC50 (Estrogen receptor beta) is reported as > 50 µM (not active).

In the case of `CCCNCC1COc2ccccc2O1` (stereo not drawn), the IC50 (Estrogen receptor beta) is reported as 4.1 µM (active).

In the case of `COc1ccc(-c2cc3nc(CCl)nc(O)c3s2)cc1`, the AC50 [1] is reported as 16.8 µM (active), the EC50 [2] is reported as 11 µM (active) and the AC50 [3] is reported as 8.71 µM (active). The AC50 [4] was 6.33 µM (active), the AC50 [5] was 17.1 µM (active) and the EC50 [6] was 11.8 µM (active). For the same compound, the CC50 [7] was 6.88 µM (active).

In the case of `CCOC(=O)CN1CC23C=CC(O2)C(C(=O)Nc2cc(OC)ccc2OC)C3C1=O` (stereo not drawn), the IC50 (Estrogen receptor beta) is reported as > 50 µM (not active).

For `CCn1cc(/C=C(\NC(=O)c2ccccc2F)C(=O)NCCCn2ccnc2)c2ccccc21`, the IC50 [8] was 14.5 µM (active).

For `CN1CCN(C2=C(Cl)C(=O)N(c3ccc(Cl)nc3)C2=O)CC1`, the IC50 [9] was > 50 µM (inconclusive).

With `Cc1ccc(-c2cc(C(=O)N3CCN(c4ccc(O)cc4)CC3)c3ccccc3n2)cc1` the AC50 [10] was 6.6 µM (active), the CC50 [11] was 100 µM (active) and the IC50 [12] was 88 µM (active).

For `O=C(Cn1ncc2c3ccccc3n(Cc3ccccc3)c2c1=O)NCCN1CCOCC1`, the IC50 [8] was 11.2 µM (active).

With `O=C(OCc1nc(O)c2sccc2n1)c1ccc(Cl)s1` the IC50 [8] was 12.6 µM (active).

With `COC1C(OC(=O)/C=C/C=C/C=C/C=C/C(=O)O)CCC2(CO2)C1C1(C)OC1CC=C(C)C` (stereo not drawn) the GI50 (P388/ADR) was 13.2 µM (inactive) and the GI50 (SN12K1) was 16.1 µM (inactive).

In the case of `O=C(C[C@@H]1C[C@H]2c3cc(NC(=O)Nc4ccccc4)ccc3O[C@H]2[C@H](CO)O1)NCc1cccnc1`, the AC50 [13] is reported as 1.64 µM (active).

For `OC(CNCc1ccco1)Cn1c2ccc(Br)cc2c2cc(Br)ccc21` (stereo not drawn), the EC50 (Streptococcus) was 13.7 µM (active), the EC50 [14] was 4.22 µM (active) and the AC50 [10] was 3 µM (active). The EC50 [15] was 9.13 µM (active), the EC50 [16] was 8.59 µM (active) and the EC50 (Streptokinase A) was > 150 µM (not active). The EC50 [17] was > 260 µM (inactive).

In the case of `COc1ccc(OC)c(S(=O)(=O)Nc2cccnc2)c1`, the IC50 [9] is reported as > 100 µM (not active).

For `O=c1cc(-c2ccccc2)c2c(O)cc(O)cc2o1`, the IC50 [8] was 13.7 µM (active).

With `CN(C)CCCN1c2ccc(O)cc2Sc2ccc(Cl)cc21` [7-HYDROXYCHLORPROMAZINE] the AC50 (Cytochrome P450 2C19) was 0.794 µM (inconclusive), the AC50 (Cytochrome P450 1A2) was 0.631 µM (inconclusive) and the CC50 [11] was 84.5 µM (active). The IC50 [12] was 11.6 µM (active).
